Test results published in patent US20230322846A9, “NEUROACTIVE STEROIDS AND THEIR METHODS OF USE” (SAGE THERAPEUTICS, INC., priority 2018, published 2023).

Key:
[1] = target: [35S]-TBPS binding, rat brain cortical membranes; test: Steroid inhibition of [35S]-TBPS binding; details: 3 nM [35S]-TBPS, in the presence of 5 mM GABA
Summary of the method: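 In the presence of […], compounds (DMSO 0.5% final) competed with 3 nM [35S]-TBPS for Sprague-Dawley rat cortical membranes, pH 7.4 phosphate buffer, 90 min, room temperature. Filtration and scintillation counting; specific binding defined by […]; IC50 and maximal inhibition fitted per experiment, averaged as mean ± SEM.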

[2] = target: human GABAA receptors composed of the α4β3δ subunits (Homo sapiens (Human), UniProt O14764+P28472+P48169); test: α4β3δ SyncroPatch automated patch clamp assay; assay type: cell-based; details: for EC50: HEK cells, potentiation of submaximal GABA current, clamped at −120 mV; for α4β3δ EMAX: peak current after GABA+compound divided by peak current after GABA alone
Method: (§1) The SyncroPatch 384PE (Nanion, Germany) automated patch clamp platform was used to obtain recordings from human embryonic kidney cells stably expressing human GABAA receptors composed of the α1β2γ2 and α4β3δ subunits. Cells were bathed in an extracellular solution containing: 140 mM NaCl, 4 mM KCl, 2 mM CaCl2), 1 mM MgCl2, 10 mM HEPES, 5 mM glucose and 0.1% DMSO. Solution was maintained at pH 7.4 with NaOH and 300 mOsm/L. Chips with multi-hole (4×) medium resistance (2-3M) are used for the recombinant cell line experiments. Once harvested, cells are stored in extracellular solution set to 10° C. in the cell hotel with a minimum shaking speed of 200 rpm before addition to the chip at the beginning of each experiment. Whole cell patch clamp recordings were made using an intracellular solution containing: 90 mM KCl, 50 mM KF, 1.5 mM MgCl2, 11.1 mM EGTA and 10 mM HEPES, 2 mM NaATP, maintained at pH 7.2 with KOH. Currents are leak corrected (using P/2 leak correction protocol) and sampled at 5 kHz. Cells were clamped at −120 mV. After establishing a stable baseline, a submaximal concentration of GABA (3-5 μM for cells expressing α1β2γ2 and 10 μM for cells expressing […]) was applied at a rate of 10 μl/second, immediately followed by application of GABA+compound (10 μl/second) at a single concentration of compound per cell. Compounds were tested at six concentrations (0.029, 0.12, 0.47, 1.88, 7.5, and 30 μM) in n=8-12 cells per concentration. Compound effect was determined by dividing peak current amplitude after GABA+compound by peak current amplitude after GABA alone. EC50 and Emax values were determined from average values for each concentration.

[3] = target: human GABAA receptors composed of the α1β2γ2 subunits (Homo sapiens (Human), UniProt P14867+P18507+P47870); test: α1β2γ2 SyncroPatch automated patch clamp assay; assay type: cell-based; details: for EC50: HEK cells, potentiation of submaximal GABA current, clamped at −120 mV; for α1β2γ2 EMAX: peak current after GABA+compound divided by peak current after GABA alone
Method: as §1

human GABAA receptors composed of the α1β2γ2 subunits, sequence (P14867 28-456 limits assumed): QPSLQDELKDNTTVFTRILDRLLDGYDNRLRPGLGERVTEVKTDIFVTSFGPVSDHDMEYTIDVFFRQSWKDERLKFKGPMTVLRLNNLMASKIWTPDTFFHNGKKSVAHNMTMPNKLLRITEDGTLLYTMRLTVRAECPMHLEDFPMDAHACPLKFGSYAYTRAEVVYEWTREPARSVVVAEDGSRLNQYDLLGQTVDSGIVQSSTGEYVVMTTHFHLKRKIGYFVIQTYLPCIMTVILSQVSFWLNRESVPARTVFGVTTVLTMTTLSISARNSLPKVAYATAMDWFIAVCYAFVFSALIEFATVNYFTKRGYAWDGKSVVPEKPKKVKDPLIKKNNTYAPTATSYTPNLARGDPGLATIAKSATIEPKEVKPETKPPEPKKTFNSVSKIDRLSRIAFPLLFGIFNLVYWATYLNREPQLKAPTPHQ
human GABAA receptors composed of the α1β2γ2 subunits, sequence (P47870 25-512 limits assumed): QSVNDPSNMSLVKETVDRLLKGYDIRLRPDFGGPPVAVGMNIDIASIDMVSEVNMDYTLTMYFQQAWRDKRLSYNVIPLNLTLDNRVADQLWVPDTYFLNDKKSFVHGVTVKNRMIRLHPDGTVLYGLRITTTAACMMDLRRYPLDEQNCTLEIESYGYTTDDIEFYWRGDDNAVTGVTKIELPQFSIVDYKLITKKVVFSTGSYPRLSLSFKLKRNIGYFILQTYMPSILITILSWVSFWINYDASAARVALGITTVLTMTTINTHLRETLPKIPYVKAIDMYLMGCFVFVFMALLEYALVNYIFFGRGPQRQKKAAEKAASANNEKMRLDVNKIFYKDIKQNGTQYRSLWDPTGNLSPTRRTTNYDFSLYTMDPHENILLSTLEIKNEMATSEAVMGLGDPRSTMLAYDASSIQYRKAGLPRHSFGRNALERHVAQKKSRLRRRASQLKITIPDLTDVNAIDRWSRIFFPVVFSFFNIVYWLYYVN
human GABAA receptors composed of the α1β2γ2 subunits, sequence (P18507 40-475 limits assumed): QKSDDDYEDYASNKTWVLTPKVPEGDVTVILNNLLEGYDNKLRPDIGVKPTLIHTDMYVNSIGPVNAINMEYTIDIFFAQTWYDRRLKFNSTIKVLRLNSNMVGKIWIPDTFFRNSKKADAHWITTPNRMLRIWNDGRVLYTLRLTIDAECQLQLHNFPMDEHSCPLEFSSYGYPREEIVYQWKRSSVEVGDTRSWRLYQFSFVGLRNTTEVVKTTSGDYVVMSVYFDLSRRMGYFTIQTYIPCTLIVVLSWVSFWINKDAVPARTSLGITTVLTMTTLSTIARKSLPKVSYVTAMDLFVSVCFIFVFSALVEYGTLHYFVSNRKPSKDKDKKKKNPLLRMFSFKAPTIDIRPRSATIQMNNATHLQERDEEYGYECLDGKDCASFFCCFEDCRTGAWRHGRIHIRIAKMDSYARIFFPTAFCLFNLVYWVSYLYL
human GABAA receptors composed of the α4β3δ subunits, sequence (P48169 36-554 limits assumed): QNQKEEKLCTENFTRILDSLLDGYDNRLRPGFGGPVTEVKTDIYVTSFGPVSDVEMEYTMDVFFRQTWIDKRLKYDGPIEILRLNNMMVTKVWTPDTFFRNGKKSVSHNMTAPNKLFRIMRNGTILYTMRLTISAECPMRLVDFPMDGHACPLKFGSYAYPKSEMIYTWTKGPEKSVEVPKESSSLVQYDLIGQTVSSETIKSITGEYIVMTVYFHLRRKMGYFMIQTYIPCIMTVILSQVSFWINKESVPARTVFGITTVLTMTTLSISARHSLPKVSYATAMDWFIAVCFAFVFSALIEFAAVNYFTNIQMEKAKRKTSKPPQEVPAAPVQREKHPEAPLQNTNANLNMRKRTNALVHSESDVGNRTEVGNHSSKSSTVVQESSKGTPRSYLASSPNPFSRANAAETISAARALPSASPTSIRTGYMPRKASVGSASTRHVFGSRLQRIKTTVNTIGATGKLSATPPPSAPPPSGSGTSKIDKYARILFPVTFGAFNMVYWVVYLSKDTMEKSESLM
human GABAA receptors composed of the α4β3δ subunits, sequence (P28472 26-473 limits assumed): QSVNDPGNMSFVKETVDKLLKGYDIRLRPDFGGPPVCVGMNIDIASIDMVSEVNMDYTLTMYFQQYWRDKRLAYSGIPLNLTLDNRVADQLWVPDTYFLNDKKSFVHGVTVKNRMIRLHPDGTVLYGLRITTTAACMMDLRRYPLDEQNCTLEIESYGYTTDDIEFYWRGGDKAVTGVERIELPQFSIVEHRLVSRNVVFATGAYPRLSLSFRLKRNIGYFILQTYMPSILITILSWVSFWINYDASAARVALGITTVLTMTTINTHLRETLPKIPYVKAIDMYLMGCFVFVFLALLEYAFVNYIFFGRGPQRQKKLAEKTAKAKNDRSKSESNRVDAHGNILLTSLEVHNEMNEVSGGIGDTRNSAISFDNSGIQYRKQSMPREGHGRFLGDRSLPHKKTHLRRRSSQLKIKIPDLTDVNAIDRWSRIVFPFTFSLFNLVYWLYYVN
human GABAA receptors composed of the α4β3δ subunits, sequence (O14764 17-452 limits assumed): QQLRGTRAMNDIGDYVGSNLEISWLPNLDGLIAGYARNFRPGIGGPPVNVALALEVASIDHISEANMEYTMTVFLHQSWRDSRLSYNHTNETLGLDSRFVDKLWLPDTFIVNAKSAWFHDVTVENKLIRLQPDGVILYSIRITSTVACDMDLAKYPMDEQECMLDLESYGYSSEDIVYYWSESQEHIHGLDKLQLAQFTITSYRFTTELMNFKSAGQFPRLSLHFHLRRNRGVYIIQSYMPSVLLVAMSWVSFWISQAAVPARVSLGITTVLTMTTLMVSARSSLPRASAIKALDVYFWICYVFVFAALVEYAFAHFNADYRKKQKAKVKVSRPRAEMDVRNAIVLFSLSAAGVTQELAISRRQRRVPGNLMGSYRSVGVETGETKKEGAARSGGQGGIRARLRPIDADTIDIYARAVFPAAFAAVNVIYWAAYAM

| Compound | IC50 [1] | EC50 [2] | α4β3δ EMAX [2] | EC50 [3] | α1β2γ2 EMAX [3] |
| --- | --- | --- | --- | --- | --- |
| CCC[C@@]1(O)CC[C@@]2(C)[C@H](CC[C@H]3[C@@H]4CC[C@H](C(C)Cn5cc(C#N)cn5)[C@@]4(C)CC(=O)[C@@H]32)C1 (stereo in doubt) [Example 339, 1-((S)-2-((3R,5R,8S,9S,10S,13S,14S,17R)-3-hydroxy-10,13-dimethyl-11-oxo-3-propylhexadecahydro-1H-cyclopenta[a]phenanthren-17-yl)propyl)-1H-pyrazole-4-carbonitrile] | < 0.1 µM | < 0.2 µM | C (C indicates an Emax response ≥45) | ≥ 1 µM | C (C indicates an Emax response ≥10) |
| COC[C@@]1(O)CC[C@H]2[C@H](CC[C@@H]3[C@@H]2CC[C@]2(C)[C@@H]([C@@H](C)Nc4ccc(C#N)cn4)CC[C@@H]32)C1 [Example 41, 6-(((R)-1-((3R,5R,8R,9R,10S,13S,14S,17S)-3-hydroxy-3-(methoxymethyl)-13-methylhexadecahydro-1H-cyclopenta[a]phenanthren-17-yl)ethyl)amino)nicotinonitrile] | 0.1 to 1 µM | ≥ 1 µM | B (B indicates an Emax response 30 to <45) | ≥ 1 µM | A (A indicates an Emax response <8) |
| COC[C@@]1(O)CC[C@H]2[C@@H](CC[C@@H]3[C@@H]2CC[C@]2(C)[C@@H]([C@@H](C)Cn4nnc(C)n4)CC[C@@H]32)C1 [Example 53, (3R,5S,8R,9R,10S,13S,14S,17R)-3-(methoxymethyl)-13-methyl-17-((R)-1-(5-methyl-2H-tetrazol-2-yl)propan-2-yl)hexadecahydro-1H-cyclopenta[a]phenanthren-3-ol] | 0.1 to 1 µM | ≥ 1 µM | A (A indicates an Emax response <30) | ≥ 1 µM | A (A indicates an Emax response <8) |
| CC[C@@]1(O)CC[C@@]2(C)[C@H](CC[C@@H]3[C@@H]2CC[C@]2(C)[C@@H]([C@@H](C)Cn4ccc(C#N)n4)CC[C@@H]32)C1 [Example 61, 1-((R)-2-((3R,5R,8R,9S,10S,13S,14S,17R)-3-ethyl-3-hydroxy-10,13-dimethylhexadecahydro-1H-cyclopenta[a]phenanthren-17-yl)propyl)-1H-pyrazole-3-carbonitrile] | < 0.1 µM | < 0.2 µM | A (A indicates an Emax response <30) | < 0.2 µM | C (C indicates an Emax response ≥10) |
| CCC[C@@]1(O)CC[C@H]2[C@H](CC[C@@H]3[C@@H]2CC[C@]2(C)[C@@H]([C@@H](C)Cn4cc(C#N)cn4)CC[C@@H]32)C1 [Example 65, 1-((R)-2-((3R,5R,8R,9R,10S,13S,14S,17R)-3-hydroxy-13-methyl-3-propylhexadecahydro-1H-cyclopenta[a]phenanthren-17-yl)propyl)-1H-pyrazole-4-carbonitrile] | < 0.1 µM | < 0.2 µM | B (B indicates an Emax response 30 to <45) | ≥ 1 µM | A (A indicates an Emax response <8) |
| CCOC[C@@]1(O)CC[C@H]2[C@H](CC[C@@H]3[C@@H]2CC[C@]2(C)[C@@H]([C@@H](C)N(C)S(=O)(=O)c4cccc(C#N)n4)CC[C@@H]32)C1 [Example 72] | < 0.1 µM | 0.2 to 1 µM | C (C indicates an Emax response ≥45) | 0.2 to 1 µM | C (C indicates an Emax response ≥10) |
| CCOC[C@@]1(O)CC[C@H]2[C@H](CC[C@@H]3[C@@H]2CC[C@]2(C)[C@@H]([C@@H](C)NC(=O)c4ccc(F)cc4F)CC[C@@H]32)C1 [Example 132] | < 0.1 µM | ≥ 1 µM | B (B indicates an Emax response 30 to <45) | ≥ 1 µM | C (C indicates an Emax response ≥10) |
| CCOC[C@@]1(O)CC[C@H]2[C@H](CC[C@@H]3[C@@H]2CC[C@]2(C)[C@@H]([C@@H](C)Nc4cccc(N5CCCC5=O)n4)CC[C@@H]32)C1 [Example 263] | < 0.1 µM | 0.2 to 1 µM | A (A indicates an Emax response <30) | 0.2 to 1 µM | A (A indicates an Emax response <8) |
| CCOC[C@@]1(O)CC[C@H]2[C@H](CC[C@@H]3[C@@H]2CC[C@]2(C)[C@@H]([C@H](C)Cn4cc(C#N)cn4)CC[C@@H]32)C1 [Example 270, 1-((S)-2-((3R,5R,8R,9R,10S,13S,14S,17R)-3-(ethoxymethyl)-3-hydroxy-13-methylhexadecahydro-1H-cyclopenta[a]phenanthren-17-yl)propyl)-1H-pyrazole-4-carbonitrile] | < 0.1 µM | 0.2 to 1 µM | C (C indicates an Emax response ≥45) | 0.2 to 1 µM | C (C indicates an Emax response ≥10) |
| CC[C@@]1(O)CC[C@H]2[C@H](CC[C@@H]3[C@@H]2CC[C@]2(C)[C@@H]([C@@H](C)Cn4ccc(C#N)n4)CC[C@@H]32)C1 [Example 272, 1-((R)-2-((3R,5R,8R,9R,10S,13S,14S,17R)-3-ethyl-3-hydroxy-13-methylhexadecahydro-1H-cyclopenta[a]phenanthren-17-yl)propyl)-1H-pyrazole-3-carbonitrile] | < 0.1 µM | < 0.2 µM | A (A indicates an Emax response <30) | < 0.2 µM | C (C indicates an Emax response ≥10) |
| CC[C@@]1(O)CC[C@H]2[C@H](CC[C@@H]3[C@@H]2CC[C@]2(C)[C@@H]([C@H](C)Cn4cc(C#N)cn4)CC[C@@H]32)C1 [Example 276, 1-((S)-2-((3R,5R,8R,9R,10S,13S,14S,17R)-3-ethyl-3-hydroxy-13-methylhexadecahydro-1H-cyclopenta[a]phenanthren-17-yl)propyl)-1H-pyrazole-4-carbonitrile] | < 0.1 µM | < 0.2 µM | A (A indicates an Emax response <30) | 0.2 to 1 µM | B (B indicates an Emax response 8 to <10) |
| CCOC[C@@]1(O)CC[C@@]2(C)[C@H](CC[C@@H]3[C@@H]2CC[C@]2(C)[C@@H]([C@H](C)Cn4ccc(C#N)n4)CC[C@@H]32)C1 [Example 278, 1-((S)-2-((3R,5R,8R,9S,10S,13S,14S,17R)-3-(ethoxymethyl)-3-hydroxy-10,13-dimethylhexadecahydro-1H-cyclopenta[a]phenanthren-17-yl)propyl)-1H-pyrazole-3-carbonitrile] | < 0.1 µM | < 0.2 µM | A (A indicates an Emax response <30) | < 0.2 µM | A (A indicates an Emax response <8) |
| CCOC[C@@]1(O)CC[C@@]2(C)[C@H](CC[C@@H]3[C@@H]2CC[C@]2(C)[C@@H]([C@@H](C)Cn4nccc4C#N)CC[C@@H]32)C1 [Example 280, 1-((R)-2-((3R,5R,8R,9S,10S,13S,14S,17R)-3-(ethoxymethyl)-3-hydroxy-10,13-dimethylhexadecahydro-1H-cyclopenta[a]phenanthren-17-yl)propyl)-1H-pyrazole-5-carbonitrile] | < 0.1 µM | < 0.2 µM | B (B indicates an Emax response 30 to <45) | < 0.2 µM | C (C indicates an Emax response ≥10) |
| CCOC[C@@]1(O)CC[C@H]2[C@H](CC[C@@H]3[C@@H]2CC[C@]2(C)[C@@H]([C@H](C)Cn4nccc4C#N)CC[C@@H]32)C1 [Example 286, 1-((S)-2-((3R,5R,8R,9R,10S,13S,14S,17R)-3-(ethoxymethyl)-3-hydroxy-13-methylhexadecahydro-1H-cyclopenta[a]phenanthren-17-yl)propyl)-1H-pyrazole-5-carbonitrile] | < 0.1 µM | 0.2 to 1 µM | A (A indicates an Emax response <30) | < 0.2 µM | B (B indicates an Emax response 8 to <10) |
